According to patent US11584714B2 (priority 2018, dated 2023):
Counter-ions that a name gives are not always drawn. Like-named read-outs stand apart in the source and are kept apart here. Square brackets hold non-standard residues; d marks the D form. Peptide text beside a SMILES is read from it. * marks the point of attachment. dChg = N[C@@H](C(=O)O)C1CCCCC1; Agmatine = N=C(N)NCCCCN*; Aze = O=C(O)[C@@H]1CCN1

What was measured:
Type in all cases: biochemical
MASP-2 (CCP1-CCP2-SP) = MASP-2 (CCP1-CCP2-SP) (Homo sapiens (Human), UniProt O00187); test: biochemical
mMASP-2 = mMASP-2 (Mus musculus (Mouse), UniProt Q91WP0); test: Enzymatic inhibition of mMASP-2; details: read-out: mMASP-2 Ki
human α-thrombin = human α-thrombin (Homo sapiens (Human), UniProt P00734); test: Enzymatic assay for thrombin (Boc-VPR-AMC substrate)
[1] = selectivity for MASP-2 inhibition versus thrombin

Sequence of MASP-2 (CCP1-CCP2-SP) (O00187 445-686): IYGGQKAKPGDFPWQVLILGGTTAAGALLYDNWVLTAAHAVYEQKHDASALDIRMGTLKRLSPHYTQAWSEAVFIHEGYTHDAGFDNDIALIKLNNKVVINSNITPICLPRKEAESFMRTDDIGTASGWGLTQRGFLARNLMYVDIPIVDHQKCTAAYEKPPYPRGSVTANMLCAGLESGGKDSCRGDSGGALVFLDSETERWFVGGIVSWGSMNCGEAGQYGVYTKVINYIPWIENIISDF
Sequence of mMASP-2 (Q91WP0 20-685): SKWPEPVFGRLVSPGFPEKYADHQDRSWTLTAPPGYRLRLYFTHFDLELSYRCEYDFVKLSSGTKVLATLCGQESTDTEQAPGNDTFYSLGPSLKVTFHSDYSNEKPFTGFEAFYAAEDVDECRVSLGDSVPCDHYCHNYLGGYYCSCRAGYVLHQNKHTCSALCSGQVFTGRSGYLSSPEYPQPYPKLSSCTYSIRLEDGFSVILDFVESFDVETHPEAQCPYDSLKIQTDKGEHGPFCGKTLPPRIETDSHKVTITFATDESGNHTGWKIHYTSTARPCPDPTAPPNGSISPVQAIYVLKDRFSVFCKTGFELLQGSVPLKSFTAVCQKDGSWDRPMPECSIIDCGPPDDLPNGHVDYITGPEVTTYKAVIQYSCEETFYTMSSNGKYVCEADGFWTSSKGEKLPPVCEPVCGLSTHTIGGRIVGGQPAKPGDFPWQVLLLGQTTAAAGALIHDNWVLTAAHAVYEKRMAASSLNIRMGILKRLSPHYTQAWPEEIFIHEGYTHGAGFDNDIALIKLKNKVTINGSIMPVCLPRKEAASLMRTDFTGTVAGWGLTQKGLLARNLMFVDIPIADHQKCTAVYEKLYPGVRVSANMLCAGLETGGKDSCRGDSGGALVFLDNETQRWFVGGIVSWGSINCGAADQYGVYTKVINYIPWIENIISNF

Compound | Ki (MASP-2 (CCP1-CCP2-SP)) [µM] | MASP-2 vs. thrombin selectivity (MASP-2 (CCP1-CCP2-SP); [1]) | Ki (mMASP-2) [µM] | Ki (human α-thrombin; Thrombin Ki (μM)) [µM] | Ki (MASP-2 (CCP1-CCP2-SP); read-out: MASP-2 Ki) [µM] | Ki (human α-thrombin; read-out: Thrombin Ki) [µM] | MASP-2 vs. thrombin selectivity (MASP-2 (CCP1-CCP2-SP); MASP-2 inhibition versus thrombin)
C[C@H](NC(=O)[C@@H]1C[C@@H](Cc2ccccc2)CN1)C(=O)NCc1ccc(C(=N)N)cc1 [compound 1285, (2S,4R)-4-Benzyl-N-((S)-1-((4-carbamimidoylbenzyl)amino)-1-oxopropan-2-yl)pyrrolidine-2-carboxamide] | 0.5 to 2.5 | ** (≥5.0 to <25-fold) | 0.5 to 2.5 | 2.5 to 10 | – | – | –
Cc1nc(N)ccc1CNC(=O)[C@H](C)NC(=O)[C@H]1C[C@H](c2ccccc2)CN1 [compound 1265, (2R,4R)—N—((S)-1-(((6-Amino-2-methylpyridin-3-yl)methyl)amino)-1-oxopropan-2-yl)-4-phenylpyrrolidine-2-carboxamide] | – | **** (≥100-fold) | 2.5 to 10 | – | < 0.5 | > 25 | –
Cc1cc(Cl)cc(CNC(=O)[C@H](C)NC(=O)[C@H]2C[C@H](Cc3ccc(Br)cc3)CN2)c1O [compound 1374, (2R,4S)-4-(4-bromobenzyl)-N-((S)-1-((5-chloro-2-hydroxy-3-methylbenzyl)amino)-1-oxopropan-2-yl)pyrrolidine-2-carboxamide Hydrochloride] | – | – | < 0.5 | – | < 0.5 | > 25 | –
N=C(N)NCCCCNC(=O)[C@@H]1CCN1C(=O)[C@H](N)C1CCCCC1 [compound 1006, (S)-1-((R)-2-Amino-2-cyclohexylacetyl)-N-(4-guanidinobutyl)azetidine-2-carboxamide Dihydrochloride] (H-[dChg]-[Aze]-Agmatine) | – | – | < 0.5 | – | < 0.5 | < 0.5 | −− (less than 1.0-fold)
Cc1nc(N)ccc1CNC(=O)[C@H](C)NC(=O)[C@H]1C[C@H](Cc2cc(Br)no2)CN1 [compound 1421, (2R,4R)—N—((S)-1-(((6-Amino-2-methylpyridin-3-yl)methyl)amino)-1-oxopropan-2-yl)-4-((3-bromoisoxazol-5-yl)methyl)pyrrolidine-2-carboxamide Di-trifluoroacetate salt] | – | **** (≥100-fold) | 0.5 to 2.5 | 10 to 25 | < 0.5 | – | –
C[C@H](NC(=O)[C@H]1C[C@H](c2ccccc2)CN1)C(=O)NCc1cnc2cccc(Cl)c2c1 [compound 1457, (2R,4R)—N—((S)-1-(((5-chloroquinolin-3-yl)methyl)amino)-1-oxopropan-2-yl)-4-phenylpyrrolidine-2-carboxamide] | 10 to 25 | – | 2.5 to 10 | – | – | > 25 | –
C[C@H](NC(=O)[C@H](N)CCc1ccccc1)C(=O)NCc1ccc(C(=N)N)nc1 [compound 1270, (R)-2-Amino-N—((S)-1-(((6-carbamimidoylpyridin-3-yl)methyl)amino)-1-oxopropan-2-yl)-4-phenylbutanamide] | – | ** (≥5.0 to <25-fold) | < 0.5 | – | < 0.5 | < 0.5 | –
C[C@H](NC(=O)[C@H]1C[C@H](Cc2ccccc2)CN1)C(=O)NCc1cc2cnccc2[nH]1 [compound 1472, (2R,4S)—N—((S)-1-(((1H-Pyrrolo[3,2-c]pyridin-2-yl)methyl)amino)-1-oxopropan-2-yl)-4-benzylpyrrolidine-2-carboxamide Di-trifluoroacetate salt] | – | **** (≥100-fold) | < 0.5 | 2.5 to 10 | < 0.5 | – | –
C[C@H](NC(=O)[C@H]1C[C@H](c2ccccc2)CN1)C(=O)NCc1cc(Cl)cc(Cl)c1O [compound 1395, (2R,4R)—N—((S)-1-((3,5-dichloro-2-hydroxybenzyl)amino)-1-oxopropan-2-yl)-4-phenylpyrrolidine-2-carboxamide Trifluoroacetate] | 0.5 to 2.5 | – | 2.5 to 10 | – | – | > 25 | –
C[C@H](NC(=O)[C@H]1C[C@H](Cc2ccccc2-c2ccc(Cl)s2)CN1)C(=O)NCc1cc(Cl)ccc1-n1cnnn1 [compound 1409, (2R,4S)—N—((S)-1-((5-Chloro-2-(1H-tetrazol-1-yl)benzyl)amino)-1-oxopropan-2-yl)-4-(2-(5-chlorothiophen-2-yl)benzyl)pyrrolidine-2-carboxamide Trifluoroacetate] | – | * (≥1.0 to <5.0-fold) | 2.5 to 10 | – | < 0.5 | < 0.5 | –
Cc1nc(N)ccc1CNC(=O)[C@H](C)NC(=O)[C@@H]1C[C@H](Cc2ccccc2)CCN1 [compound 1354, (2S,4R)—N—((S)-1-(((6-Amino-2-methylpyridin-3-yl)methyl)amino)-1-oxopropan-2-yl)-4-benzylpiperidine-2-carboxamide Dihydrochloride] | – | *** (≥25 to <100-fold) | 0.5 to 2.5 | 2.5 to 10 | < 0.5 | – | –
Cc1cc(Cl)cc(CNC(=O)[C@H](C)NC(=O)[C@H]2C[C@@H](c3ccccc3)CCN2)c1O [compound 1365, (2R,4S)—N—((S)-1-((5-Chloro-2-hydroxy-3-methylbenzyl)amino)-1-oxopropan-2-yl)-4-phenylpiperidine-2-carboxamide Hydrochloride] | – | **** (≥100-fold) | < 0.5 | – | < 0.5 | > 25 | –
C[C@H](NC(=O)[C@H]1C[C@H](c2ccccc2)CN1)C(=O)NCc1ccc(C(N)=O)nc1 [compound 1273, 5-(((S)-2-((2R,4R)-4-Phenylpyrrolidine-2-carboxamido)propanamido)methyl)picolinamide] | 10 to 25 | – | 10 to 25 | – | – | > 25 | –
C[C@H](NC(=O)[C@H]1C[C@H](c2ccccc2)CN1)C(=O)NCc1ccc(C(=N)NC(=O)OCC(F)(F)F)cc1 [compound 1305, 2,2,2-Trifluoroethyl (imino(4-(((S)-2-((2R,4R)-4-phenylpyrrolidine-2-carboxamido)propanamido)methyl)phenyl)methyl)carbamate] | 0.5 to 2.5 | ** (≥5.0 to <25-fold) | < 0.5 | – | – | > 25 | –
Cc1nc(N)ccc1CNC(=O)[C@H](C)NC(=O)[C@H]1C[C@@H](c2ccccc2)CCN1CCCCCC(=O)O [compound 1412, 6-((2R,4S)-2-(((S)-1-(((6-Amino-2-methylpyridin-3-yl)methyl)amino)-1-oxopropan-2-yl)carbamoyl)-4-phenylpiperidin-1-yl)hexanoic acid Trifluoroacetate salt] | – | – | 2.5 to 10 | – | < 0.5 | > 25 | –
C[C@H](NC(=O)[C@H]1C[C@H](Cc2ccccc2Br)CN1)C(=O)NCc1cnc2c(c1)c(Cl)cn2C [compound 1482, (2R,4S)-4-(2-bromobenzyl)-N-((S)-1-(((3-chloro-1-methyl-1H-pyrrolo[2,3-b]pyridin-5-yl)methyl)amino)-1-oxopropan-2-yl)pyrrolidine-2-carboxamide Hydrochloride] | – | *** (≥25 to <100-fold) | < 0.5 | 0.5 to 2.5 | < 0.5 | – | –
C[C@H](NC(=O)[C@H]1C[C@H](c2ccccc2)CN1)C(=O)NCc1ccc(C(=N)N)nc1 [compound 1272, (2R,4R)—N—((S)-1-(((6-Carbamimidoylpyridin-3-yl)methyl)amino)-1-oxopropan-2-yl)-4-phenylpyrrolidine-2-carboxamide] | – | *** (≥25 to <100-fold) | < 0.5 | 0.5 to 2.5 | < 0.5 | – | –
